Results from US20230357242A1, “COMPOUND AS AKT KINASE INHIBITOR” (CHIA TAI TIANQING PHARMACEUTICAL GROUP CO., LTD., priority 2020, published 2023).

How the values were obtained:
AKT1 (S473) = biological target: T1, AKT1 (S473) (Homo sapiens, UniProt P31749); assay: Inhibitory effect on phosphorylation of LNcap cells AKT1 (S473); format: cell-based; settings: 1 h incubation
T1 construct: endogenous in cells; host or cells: LNcap cells
Protocol: LNcap cells AKT1 (S473) growing at log phase were taken, digested with 1 mL of pancreatin for 3 min, and added with 4 mL of complete medium to terminate digestion. The cells were added to a centrifuge tube. 20 μL of cells were taken and counted, the required number of cells (mL) was taken and centrifuged at 1200 rpm for 5 min, and a plating medium (2% FBS+phenol-free red 1640 base medium+1% sodium pyruvate+1% glutamine) was added to adjust the cell density to about 1×10E6 cells/mL. The cells were plated (96 wells) at the above cell density (100 μL/well), and cultured in a cell incubator at 37° C., 5% CO2 overnight; the next day, according to the plate distribution, the corresponding compound was sprayed using a nanoliter pipettor and incubated for 1 h at 37° C. in a cell incubator containing 5% CO2; the supernatant was discarded, and the plate was added with 40 μL of lysis buffer (1×) containing blocking buffer and incubated by shaking at room temperature for 30 min. After the mixture was mixed, 16 μL of lysate was transferred to another 384-well small-volume white plate. The plate was added with 4 μL of pre-mixed antibody (v/v) in assay buffer, covered, centrifuged to mix well, and incubated overnight at room temperature. The 665 nm/620 nm signal value was detected using a PE Envision multi-functional microplate reader, and IC50 was calculated by four-parameter fitting.

[1] = Pharmacokinetic evaluation in mice; format: in vivo; parameters: Cl: unit not given here; settings: ICR mice; for AUC(0-inf) / AUC(0-t) / Cmax / Tmax / bioavailability / MRT last / Vd: mouse, plasma; for bioavailability: IG 10 mg/kg vs IV 1 mg/kg, read-out: Absolute bioavailability F %; for MRT last: read-out: MRT(0-t)
Protocol: ICR mice, weight 18-22 g, after adaption for 3-5 days, were randomly divided into 4 groups of 9 mice, each group was intragastrically (IG) administered with compound 28 or compound 30 at a dose of 10 mg/kg, or intravenously (IV) administered with compound 28 or compound 30 at a dose of 1 mg/kg.
The animals to be tested (ICR mice) were fasted for 12 h before administration and food was provided 4 h after administration, and water was freely drunk before and after the experiment and during the experiment.
(§1) After intragastric administration, about 0.1 mL of blood was taken from eye sockets at 15 min, 30 min, 1 h, 2 h, 3 h, 4 h, 6 h, 8 h, 10 h, and 24 h; after intravenous injection, about 0.1 mL of blood was taken from eye sockets at 5 min, 10 min, 30 min, 1 h, 2 h, 4 h, 6 h, 8 h, 10 h, and 24 h; each mouse was collected at 3-4 time points and 3 mice were collected at each time point, whole blood was collected, placed in centrifuge tubes containing EDTA-K2, and stored at 4° C. within 1 h, and the plasma was separated off by centrifugation at 4° C. and 4000 rpm for 10 min. All the plasma samples were collected and immediately stored at −20° C. for testing. 30 μL of the plasma sample to be tested and a standard curve sample were pipetted and added with 300 μL of acetonitrile solution containing an internal standard (20 ng/mL diazepam), shaken and mixed well for 5 min, and centrifuged at 13,000 rpm for 10 min. 80 μL of supernatant was taken and diluted with 80 μL of ultrapure water. After being mixed well, 2 μL of the resulting sample was taken for liquid chromatography-mass determination, and a chromatogram was recorded.
Oral and intravenous exposure of the compound of the present application was evaluated by in vivo pharmacokinetic experiment in mice.

[2] = Pharmacokinetic evaluation in rats; format: in vivo; parameters: Cl: unit not given here; settings: SD rats; for bioavailability / AUC(0-inf) / AUC(0-t) / Cmax / Tmax / MRT last / Vd: rat, plasma; for bioavailability: oral, IG 10 mg/kg vs IV 1 mg/kg, read-out: Absolute bioavailability F %; for MRT last: read-out: MRT(0-t)
Protocol: SD rats, weight 180-220 g, after adaption for 7 days, were randomly divided into 4 groups of 3 […], each group was intragastrically (IG) administered with compound 28 or compound 30 at a dose of 10 mg/kg, or intravenously (IV) administered with compound 28 or compound 30 at a dose of 1 mg/kg. The animals to be tested (SD rats) were fasted for 12 h before administration and food was provided 4 h after administration, and water was freely drunk before and after the experiment and during the experiment.
as §1, with “h;” for “h; each mouse was collected at 3-4 time points and”, “rats” for “mice”
Oral and intravenous exposure of the compound of the present application was evaluated by in vivo pharmacokinetic experiment in rats.

T1 sequence (P31749 whole entry): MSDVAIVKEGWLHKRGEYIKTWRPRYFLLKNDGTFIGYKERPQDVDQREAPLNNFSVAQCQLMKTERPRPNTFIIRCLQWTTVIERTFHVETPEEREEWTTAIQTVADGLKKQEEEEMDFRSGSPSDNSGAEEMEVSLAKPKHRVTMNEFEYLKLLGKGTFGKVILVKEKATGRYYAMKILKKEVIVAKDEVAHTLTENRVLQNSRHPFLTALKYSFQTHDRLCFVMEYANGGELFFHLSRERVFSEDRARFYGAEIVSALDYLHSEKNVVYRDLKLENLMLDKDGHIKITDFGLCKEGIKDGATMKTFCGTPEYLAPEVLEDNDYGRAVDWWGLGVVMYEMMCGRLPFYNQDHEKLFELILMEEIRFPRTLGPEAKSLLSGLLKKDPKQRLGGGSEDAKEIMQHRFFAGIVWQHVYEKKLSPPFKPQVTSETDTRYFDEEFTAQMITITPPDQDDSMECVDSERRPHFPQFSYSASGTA

IC50 (AKT1 (S473)) [nM]	t1/2z ([1]; IG 10 mg/kg) [h]	Cl ([1]; IV 1 mg/kg)	t1/2z ([1]; IV 1 mg/kg) [h]	AUC(0-inf) ([1]; po, IG 10 mg/kg) [ng·h/mL]	AUC(0-t) ([1]; po, IG 10 mg/kg) [ng·h/mL]	Cmax ([1]; po, IG 10 mg/kg) [ng/mL]	Tmax ([1]; po, IG 10 mg/kg) [h]	bioavailability ([1]; po) [%]	MRT last ([1]; po, IG 10 mg/kg) [h]	AUC(0-inf) ([1]; IV 1 mg/kg) [ng·h/mL]	AUC(0-t) ([1]; IV 1 mg/kg) [ng·h/mL]	Vd ([1]; IV 1 mg/kg) [L/kg]	MRT last ([1]; IV 1 mg/kg) [h]	t1/2z ([2]; IG 10 mg/kg) [h]	Cl ([2]; IV 1 mg/kg)	t1/2z ([2]; IV 1 mg/kg) [h]	bioavailability [2] [%]	AUC(0-inf) ([2]; po, IG 10 mg/kg) [ng·h/mL]	AUC(0-t) ([2]; po, IG 10 mg/kg) [ng·h/mL]	SMILES	further results
22	6.58	2.08	1.48	2880	2770	542	2	58.2	5.01	482	476	4.43	1.04	5.43 ± 1.82	7.23 ± 0.496	7.73 ± 0.440	35.5	383 ± 106	358 ± 109	Nc1ncccc1-c1nc2ccc(-c3cccc(N4CCC(N5CCCC5=O)CC4)c3F)nc2n1-c1ccc(C2(N)CCC2)cc1 [Compound 30]	Cmax ([2]; po, IG 10 mg/kg): 31.2 ± 8.8 ng/mL; Tmax ([2]; po, IG 10 mg/kg): 4.67 ± 1.15 h; MRT last ([2]; po, IG 10 mg/kg): 8.15 ± 0.73 h; AUC(0-inf) ([2]; IV 1 mg/kg): 139 ± 9.21 ng·h/mL; AUC(0-t) ([2]; IV 1 mg/kg): 127 ± 9.69 ng·h/mL; Vd ([2]; IV 1 mg/kg): 80.8 ± 8.9 L/kg; MRT last ([2]; IV 1 mg/kg): 5.57 ± 0.053 h
28	5.31	3.95	1.74	896	871	140	2	35.4	5.28	253	246	9.92	1.49	3.93 ± 1.46	5.75 ± 0.146	5.9 ± 2.11	25	372 ± 197	362 ± 195	CC(=O)N1CC2(C1)CN(c1cccc(-c3ccc4nc(-c5cccnc5N)n(-c5ccc(C6(N)CCC6)cc5)c4n3)c1F)C2 [Compound 28]	Cmax ([2]; po, IG 10 mg/kg): 32.6 ± 12.4 ng/mL; Tmax ([2]; po, IG 10 mg/kg): 4.67 ± 1.15 h; MRT last ([2]; po, IG 10 mg/kg): 7.38 ± 0.43 h; AUC(0-inf) ([2]; IV 1 mg/kg): 174 ± 4.37 ng·h/mL; AUC(0-t) ([2]; IV 1 mg/kg): 145 ± 11.1 ng·h/mL; Vd ([2]; IV 1 mg/kg): 48.8 ± 16.8 L/kg; MRT last ([2]; IV 1 mg/kg): 2.12 ± 0.099 h
